Assay: Short-term stability in spiked pooled human plasma (bench-top, 4 °C, 56 °C)

SMILES | Short-time stability (1h, 56°C) Accuracy [%] (validation standard 2xLLOV) | Short-time stability (24h, 4°C, without daylight) Accuracy [%] (validation standard 2xLLOV) | Short-time stability (24h, RT, with daylight) Accuracy [%] (validation standard 2xLLOV) | Short-time stability (24h, RT, without daylight) Accuracy [%] (validation standard 2xLLOV) | Short-time stability (1h, 56°C) Accuracy [%] (validation standard LLOV) | Short-time stability (24h, 4°C, without daylight) Accuracy [%] (validation standard LLOV) | Short-time stability (24h, RT, with daylight) Accuracy [%] (validation standard LLOV) | Short-time stability (24h, RT, without daylight) Accuracy [%] (validation standard LLOV) | Short-time stability (1h, 56°C) Accuracy [%] (validation standard MOV) | Short-time stability (24h, 4°C, without daylight) Accuracy [%] (validation standard MOV) | Short-time stability (24h, RT, with daylight) Accuracy [%] (validation standard MOV) | Short-time stability (24h, RT, without daylight) Accuracy [%] (validation standard MOV) | Short-time stability (1h, 56°C) Accuracy [%] (validation standard ULOV) | Short-time stability (24h, 4°C, without daylight) Accuracy [%] (validation standard ULOV) | Short-time stability (24h, RT, with daylight) Accuracy [%] (validation standard ULOV) | Short-time stability (24h, RT, without daylight) Accuracy [%] (validation standard ULOV)
CNC(=O)c1cc(Oc2ccc(NC(=O)Nc3ccc(Cl)c(C(F)(F)F)c3)c(F)c2)ccn1 [Regorafenib] | 41.3 | 95.0 | 89.4 | 83.8 | 32.3 | 83.3 | 88.6 | 80.3 | 39.7 | 104.6 | 90.2 | 90.8 | 35.4 | 101.4 | 89.0 | 87.8
CN(C)C(=O)c1cc2cnc(Nc3ccc(N4CCNCC4)cn3)nc2n1C1CCCC1 [Ribociclib] | 49.7 | 98.0 | 94.2 | 92.7 | 30.6 | 87.3 | 79.3 | 81.3 | 50.5 | 98.8 | 95.0 | 93.5 | 41.5 | 84.9 | 84.8 | 83.3
N#CC[C@H](C1CCCC1)n1cc(-c2ncnc3[nH]ccc23)cn1 [Ruxolitinib] | 63.9 | 97.6 | 101.6 | 102.0 | 63.3 | 102.2 | 100.4 | 105.0 | 60.9 | 100.3 | 100.6 | 102.2 | 53.0 | 95.9 | 102.3 | 101.3
Cc1c(C(=O)Nc2ccc(N3C[C@@H](C)O[C@@H](C)C3)nc2)cccc1-c1ccc(OC(F)(F)F)cc1 [Sonidegib] | 47.0 | 99.1 | 95.7 | 91.1 | 38.1 | 96.4 | 96.2 | 86.1 | 44.9 | 98.4 | 92.2 | 94.7 | 40.1 | 96.7 | 92.9 | 91.4
CNC(=O)c1cc(Oc2ccc(NC(=O)Nc3ccc(Cl)c(C(F)(F)F)c3)cc2)ccn1 [Sorafenib] | 38.6 | 97.0 | 85.6 | 81.9 | 28.2 | 96.0 | 83.4 | 72.1 | 38.4 | 98.2 | 89.2 | 91.9 | 34.6 | 92.5 | 91.0 | 89.2
CCN(CC)CCNC(=O)c1c(C)[nH]c(/C=C2\C(=O)Nc3ccc(F)cc32)c1C [Sunitinib] | 54.5 | 105.9 | 79.8 | 83.9 | 65.8 | 111.2 | 93.0 | 98.2 | 44.2 | 101.2 | 83.0 | 86.7 | 40.6 | 106.4 | 93.1 | 93.8
O=C1CCC(N2C(=O)c3ccccc3C2=O)C(=O)N1 (centres unmarked) [Thalidomide] |  | 64.9 |  |  |  | 69.3 |  |  |  | 60.7 |  |  |  | 55.2 | 1.7 | 1.7
COc1cc2nccc(Oc3ccc(NC(=O)Nc4cc(C)on4)c(Cl)c3)c2cc1OC [Tivozanib] | 49.4 | 103.2 | 104.0 | 103.9 | 38.6 | 102.5 | 99.0 | 100.8 | 49.6 | 100.8 | 103.5 | 105.8 | 42.5 | 98.0 | 104.7 | 103.8
CC(=O)Nc1cccc(-n2c(=O)n(C3CC3)c(=O)c3c(Nc4ccc(I)cc4F)n(C)c(=O)c(C)c32)c1 [Trametinib] | 40.7 | 101.9 | 88.2 | 94.3 | 0.4 | 90.4 | 78.3 | 53.1 | 52.0 | 115.0 | 101.6 | 99.7 | 47.5 | 108.2 | 96.8 | 92.2
O=c1[nH]c(=O)n([C@H]2C[C@H](O)[C@@H](CO)O2)cc1C(F)(F)F [Trifluridine] | -6.6 | 103.5 | 72.7 | 76.2 | -89.2 | 83.6 | 45.6 | 36.1 | 28.1 | 96.3 | 78.0 | 75.3 | 23.2 | 85.5 | 66.9 | 67.3
CCCS(=O)(=O)Nc1ccc(F)c(C(=O)c2c[nH]c3ncc(-c4ccc(Cl)cc4)cc23)c1F [Vemurafenib] | 41.6 | 93.0 | 92.7 | 85.9 | 34.3 | 90.0 | 93.0 | 82.9 | 39.7 | 100.4 | 89.3 | 92.1 | 34.6 | 93.8 | 91.3 | 88.2
CC1(C)CCC(CN2CCN(c3ccc(C(=O)NS(=O)(=O)c4ccc(NCC5CCOCC5)c([N+](=O)[O-])c4)c(Oc4cnc5[nH]ccc5c4)c3)CC2)=C(c2ccc(Cl)cc2)C1 [Venetoclax] | 34.5 | 102.9 | 98.6 | 95.7 |  | 88.8 | 112.5 | 102.7 | 26.4 | 100.5 | 96.8 | 98.0 | 22.4 | 99.7 | 94.1 | 92.7
CCC1=C[C@@H]2CN(C1)Cc1c([nH]c3ccccc13)[C@@](C(=O)OC)(c1cc3c(cc1OC)N(C)[C@H]1[C@@](O)(C(=O)OC)[C@H](OC(C)=O)[C@]4(CC)C=CCN5CC[C@]31[C@@H]54)C2 [Vinorelbine] | 42.2 | 88.7 | 78.0 | 79.3 | 67.0 | 96.3 | 98.2 | 96.4 | 37.2 | 93.6 | 66.8 | 70.0 | 29.6 | 91.1 | 62.0 | 57.4
